From patent publication US8871781B2, “Methods and compositions for treating a subject for a lymphatic malformation” (The Board of Trustees of the Leland Stanford Junior …, priority 2011, dated 2014)
“Also recorded” adds a separate entry of the source.

What was measured:
Format in all cases: in vivo, human
[1] = system: lymphatic malformation; assay: Index patient: infant with microcystic venolymphatic malformation given sildenafil for pulmonary hypertension
Excerpt: FIG. 1, Panels A-B depict pre- and post-treatment magnetic resonance imaging (MRI) contrast-enhanced images of a subject with a lymphatic malformation treated in accord with the subject methods. […] Contrast highlights the heart with right ventricular enlargement (dashed arrow), aorta, and pulmonary vessels.
An infant was born with massive enlargement of their right chest and arm. […], the infant developed tachypnea due to congestive heart failure and pulmonary edema. […] At 9 months, cardiac catheterization confirmed the diagnosis of idiopathic pulmonary hypertension and sildenafil was started (initially 0.5 mg/kg/dose TID and titrated to 0.75 mg/kg/dose TID). […] The post-MRI course was complicated by worsening cardiopulmonary interactions, respiratory failure and subsequent cardiac failure leading to their death.

[2] = system: lymphatic malformations; assay: Pilot study: sildenafil for 12 weeks in two children with disabling LMs
Protocol: Based on the observation of marked regression in a lymphatic malformation after starting sildenafil, a pilot study to treat otherwise healthy children with LMs with sildenafil was approved by the Stanford University Human Research Protection Program (IRB). After informed consent was obtained, sildenafil (goal dose 1.0 mg/kg/dose TID) was administered to two children with disabling LMs for 12 weeks, and results are summarized in Table 1.

[3] = system: lymphatic malformation; assay: Clinical trial: MRI before and after 20 weeks of sildenafil; conditions: for volume of the lymphatic malformation after 20 weeks: MRI; for decrease of the volume of the lymphatic malformation: over 20 weeks
Protocol: An additional 7 subjects were enrolled into a clinical trial. Sildenafil was administered substantially as described above in Examples 1-2. […] Three subjects completed the 20 week trial and had the follow up MRI completed; the remaining four subjects are still undergoing the trial.

[4] = Subject 1, LM of left orbit, upper and lower eyelids
[5] = Subject 2, LM of right axilla, after 12 weeks of treatment (FIG. 3, Panel B)
[6] = Subject 2, LM of right axilla, chest
[7] = Subject 2, LM of right upper back

Question: What does the source list for `CCCc1nn(C)c2c(=O)[nH]c(-c3cc(S(=O)(=O)N4CCN(C)CC4)ccc3OCC)nc12` [sildenafil]?
Answer: MRI finding of the malformation after therapy ([1]; cardiac MRI (FIG. 1, Panel B)): minimal residual lymphatic malformation; also recorded: near complete resolution of the malformation; role of sildenafil in the patient's death ([1]; death from respiratory and cardiac failure): not thought to play a role in their death; skin examination of the malformation ([1]; four months after starting sildenafil): thin, bluish plaque and redundant tissue; change in size of the malformation ([1]; sildenafil, 0.5 titrated to 0.75 mg/kg/dose TID): gradually decreased in size; change of the lesion after stopping the medication ([2]; Subject 1): enlargement of the lesion; Adverse effects ([2]; Subject 1, 12 weeks of therapy): Loose yellow; clinical change of eyelid LM ([2]; Subject 1, after 3 weeks of therapy): improved eye opening and definition of the upper eyelid fold and superior palpebral sulcus; improvement of LM ([2]; Subject 1, at the end of treatment (12 weeks)): 25%; Change in LM 4 weeks after discontinuing therapy [2, 4]: Enlargement; Parent impression of change in LM after 12 weeks of therapy [2, 4]: Fair; Adverse effects ([2]; Subject 2, 12 weeks of therapy): None; consistency of the lesion [2, 5]: softer and saggier; reduction in diameter of the lesion [2, 5]: 1 cm; improvement of LMs ([2]; Subject 2, after 8 weeks of treatment): 50%; improvement of LMs ([2]; Subject 2, after 12 weeks of treatment): 75%; appearance of the large LM affecting the back ([2]; Subject 2, at the 12 week visit (FIG. 2, Panel C)): appeared deflated; change of the LMs after stopping the medication ([2]; Subject 2, four weeks after stopping (FIG. 2, Panel D)): mild enlargement; Change in LM 4 weeks after discontinuing therapy ([2]; Subject 2, LM of left forearm): Stable; Parent impression of change in LM after 12 weeks of therapy ([2]; Subject 2, LM of left forearm): Good; Change in LM 4 weeks after discontinuing therapy [2, 6]: Stable; Parent impression of change in LM after 12 weeks of therapy [2, 6]: Good; Change in LM 4 weeks after discontinuing therapy [2, 7]: Enlargement; Parent impression of change in LM after 12 weeks of therapy [2, 7]: Good; tolerability ([2]; two children, 12 weeks, goal dose 1.0 mg/kg/dose TID): tolerated without significant adverse effects; adverse events associated with the medication ([3]; 20 week trial): no adverse events; volume of the lymphatic malformation after 20 weeks ([3]; first subject evaluated, 186 cc before sildenafil): 174 cc; decrease of the volume of the lymphatic malformation ([3]; first subject evaluated, 186 cc to 174 cc): 6.45%; volume of the lymphatic malformation after 20 weeks ([3]; second subject evaluated, 46.5 cc before sildenafil): 42.7 cc; decrease of the volume of the lymphatic malformation ([3]; second subject evaluated, 46.5 cc to 42.7 cc): 8.17%; volume of the lymphatic malformation after 20 weeks ([3]; third subject evaluated, 56.246 cc before sildenafil): 51.732 cc; decrease of the volume of the lymphatic malformation ([3]; third subject evaluated, 56.246 cc to 51.732 cc): 8.03%
